System: Pten^L/L prostate cancer mouse model
Test: Pharmacological treatment of Pten^L/L mice (preclinical trial; IHC, immunofluorescence, histology, MRI, lymph node metastasis)
Type: in vivo
Details: 28 days, RAD001 10 mg/kg daily
Source text: Weight measurements were taken every 3 days to monitor for toxicity. For the 28-day study, mice were imaged via MRI at day 0 and day 28 in a 14-T GE MR scanner (GE Healthcare).
Whole mouse prostates were removed from wild-type and Pten^L/L mice, microdissected, and frozen in liquid nitrogen. Frozen tissues were subsequently manually disassociated using a biopulverizer (Biospec) and additionally processed for protein and mRNA analysis as described above.
Prostates and lymph nodes were dissected from mice within 2 hr of the indicated treatment and fixed in 10% formalin overnight at 4° C. Tissues were subsequently dehydrated in ethanol (Sigma) at room temperature, mounted into paraffin blocks, and sectioned at 5 μm. Specimens were de-paraffinized and rehydrated using CitriSolv (Fisher) followed by serial ethanol washes. […] Sections were washed in distilled water followed by TBS washes. The sections were then incubated in 5% goat serum, 1% BSA in TBS for 1 hr at room temperature. Various primary antibodies were used, including those specific for keratin 5 (Covance), cytokeratin 8 (Abcam and Covance), YB1 (Abcam), vimentin (Abcam), MTA1 (Cell signaling), CD44 (BD Pharmingen), and the androgen receptor (Epitomics), which were diluted 1:50-1:500 in blocking solution and incubated on sections overnight at 4° C. Specimens were then washed in TBS and incubated with the appropriate Alexa 488 and 594 labeled secondary (Invitrogen) at 1:500 for 2 hr at room temperature, with the exception of YB1 which was incubated with biotinylated anti-rabbit secondary (Vector) followed by incubation with Alexa 594 labeled Streptavidin (Invitrogen). A final set of washes in TBS was completed at room temperature followed by mounting with DAPI Hardset Mounting Medium (Vector Lab). A Zeiss Spinning Disc confocal (Zeiss, CSU-X1) was used to image the sections at 40×-100×. Individual prostate cells were quantified for mean fluorescence intensity (m.f.i.) using the Axiovision (Zeiss, Release 4.8) densitometric tool.
Mouse lymph nodes were processed as described above and stained for CK8 and androgen receptor. Lymph nodes were imaged using a Zeiss AX10 microscope. Metastases were identified and areas were measured using the Axiovision (Zeiss, Release 4.8) measurement tool.
Immunohistochemistry was performed as described above (see “Immunofluorescence”) with the exception that immediately after antigen […] and TBS washes, specimens were incubated in 3% hydrogen peroxide in TBS followed by TBS washes. The following primary antibodies were used: phospho-AKT^S473 (Cell Signaling), phospho-rpS6^S240/244 (Cell Signaling), phospho-4EBP1^T37/46 (Cell Signaling), phospho-histone H3 (Upstate), and cleaved caspase (Cell Signaling). […] The protein of interest was detected using DAB (Sigma). […]

[1] = ATP site inhibitor of mTOR 1 mg/kg daily

Question: For `CO[C@H]1C[C@@H]2CC[C@@H](C)[C@@](O)(O2)C(=O)C(=O)N2CCCC[C@H]2C(=O)O[C@H]([C@H](C)C[C@@H]2CC[C@@H](OCCO)[C@H](OC)C2)CC(=O)[C@H](C)/C=C(\C)[C@@H](O)[C@@H](OC)C(=O)[C@H](C)C[C@H](C)/C=C/C=C/C=C/1C` [RAD001], which “4EBP1 and p70S6K1/2 phosphorylation” value [1] is on record?
Answer: only decreased p70S6K1/2 phosphorylation levels

Question: What about the “apoptosis (cleaved caspase 3)” value [1] of the same compound?
Answer: no significant effect

Question: And the “proliferation (phospho-histone H3)” value [1]?
Answer: limited decrease in cell proliferation

Question: And the “regression of PIN lesions” value?
Answer: only partial regression of PIN lesions

Reference: patent US20190093170A1, “USE OF TRANSLATIONAL PROFILING TO IDENTIFY TARGET MOLECULES FOR THERAPEUTIC TREATMENT” (THE REGENTS OF THE UNIVERSITY OF CALIFORNIA, priority 2013, published 2019)
